In patent US20040266862A1, “Method of improving animal tissue quality by supplementing the animal diet with mixed tocotrienols” (priority 2003, published 2004):
Marks after values point to notes of the source that are not given here.

Experiments:
Assay type in all cases: in vivo
[1] = system: chickens; experiment: 2002 poultry feed test: TBARS content of cooked ground chicken breasts; settings: 300 ppm in diet
Excerpt: (§1) Applicants also assessed the effects of antioxidant supplementation on meat quality in an experiment in which meat from chickens fed one of four dietary treatments was compared. On Jul. 25, 2002, day-old chicks were obtained from a commercial company. The birds were housed in a brooder until Aug. 11, 2002. On Aug. 11, forty-eight birds were randomly allocated to one of four pens (twelve birds per pen). Birds in each pen were offered ad libitum access to one of four treatment diets: control, 300 ppm AT, 300 ppm GT or 150 ppm MT. The MT premix contained a commercially available MT supplement (7.5% alpha-, 12.3% gamma- and 3.0% delta-tocotrienol and 7.2% alpha-tocopherol) mixed with ground corn as the carrier. The total MT premix (ground corn plus MT supplement) represented 2.5% w/w of the finished MT supplemented feed.
(§2) On Sep. 13, 2002 (seven weeks of age) the birds were harvested, identified and frozen at −20C. The birds were stored frozen at −20C for 136-159 days post slaughter. On days 136, 156, 157, 158 and 159 (where available) two birds per dietary treatment were thawed in cold water. Meat was removed from the breasts (pectoralis major muscles) and thighs. Breast meat from each chicken was ground through a 3 mm disc in a Krups Butcher Shop 150W Professional Power Meat Grinder. Thigh meat from two chickens was combined (for days 156, 157, 158 and 159; day 136 thigh meat was kept separate for each bird) and ground in a similar manner. Patties were made (10 g for breast; 60 g for thighs) using a 100×15 mm Petri dish as a mold.
(§3) Raw ground chicken breast and thigh patties were cooked in a pre-warmed George Foreman grill for five minutes per breast patty and four minutes per thigh patty. Cooked patties were allowed to cool under refrigeration and then quartered (day 136) or halved (days 156, 157, 158 and 159). Each quarter or half was stored at 2.2C in zip lock baggies for a designated period of time. One quarter was used per sampling period. Sampling periods were 0 hours, 4 hours, 26 hours and 48 hours. Thiobarbituric acid reacting substances (TBARS) analyses was performed according to Ahn et al., and the results are shown in the following two tables.

[2] = system: swine; experiment: 2002 swine feed test: 21-day raw pork loin quality measurements; set-up: key to Hunter a: Hunter a; more positive = redder; key to Hunter b: Hunter b; more positive = more yellow; Hunter a* / Hunter b*: scale not given here; settings: for Chop purge, % / Cooking Loss, %: 21-day pork loin; for Hunter L / Hunter L* / Hunter a / Hunter a* / Hunter b / Hunter b* / Loin pH / Loin purge, %: 21-day raw pork loin; for Instron force, kg: force to pierce loin chop
Excerpt: (§4) Applicants conducted a second swine feeding trial to further determine the effects on meat quality of supplementation of a swine diet with alpha-tocopherol (AT), gamma-tocopherol (GT) or mixed tocotrienols (MT). Seventy-two barrows (˜75 lbs.) were transported to the Pioneer Livestock Nutrition Center (PLNC) and randomly placed into individual pens with water and feed provided ad libitum. The pigs received a common diet for seven days. On the eighth day the pigs were weighed individually and a uniform group of sixty pigs with an average body weight of about 75 pounds was selected. The pigs were randomly assigned one of five dietary treatments with 12 pigs per treatment. The feeding trial was initiated on Mar. 12, 2002 and ended on Jun. 19, 2002.
(§5) The pigs were fed a corn-soybean meal diet formulated to provide adequate levels of all nutrients. In addition, one of five dietary treatments was assigned to each group: control, 300 ppm AT, 450 ppm GT, 150 ppm MT, and 300 ppm MT. To each diet a corn oil premix and a ground corn premix were added with the corn oil premix as a carrier for the supplemental tocopherols and the ground corn premix as the carrier for the MT. The MT supplement was obtained commercially from Fuji Chemical Industries (U.S.A.) Inc. of Robbinsville, N.J., and contained 7.5% alpha-, 12.3% gamma- and 3.0% delta-tocotrienol, as well as 7.2% alpha-tocopherol.
Approximately twenty-one days after slaughter the loins were removed from vacuum bags and weighed. The liquid that had accumulated in the bags during storage was measured to calculate 21-day purge. Loin pH was measured at three locations by carefully inserting a glass probe into the mid-point of the anterior, mid and posterior thirds of each loin. As expected, measurement location (blade, chop or shoulder) affected loin pH, Hunter L, L* and a* values.
The Hunter L, a and b values were measured with a Hunter laboratory system for color evaluation. Hunter L is a measurement of the lightness of an object, and may be thought of as the light reflectance from the surface of an object. Thus, a higher Hunter L value indicates a lighter color, and an L value of 100 would indicate prefect reflectance from the surface. (The white standard has an L value of 97.21.) An increasingly positive Hunter a value indicates a redder color, and an increasingly positive Hunter b value indicates a more yellow color.

[3] = system: chickens; experiment: 2002 poultry feed test: TBARS content of cooked ground chicken thighs; settings: 300 ppm in diet
Excerpt: as §1, §2, §3

[4] = system: swine; experiment: 2002 swine feed test: 24 hour raw pork loin quality
[5] = system: swine; experiment: as above; set-up: Marbling / Fat Firmness / Color Score: scale not given here
Excerpt: as §4, §5
The pigs were harvested in June 2002 when they had reached an average weight of about 245 pounds. Following a twelve-hour feed withdrawal, the pigs were transported to a commercial processing facility. At the commercial processing facility, individual hot carcass weight, back fat depth and loin depth were measured and recorded on the day of slaughter. Loin pH, loin color value (Minolta L*), Marbling and fat firmness were recorded 24 hours post mortem.

Cc1c(C)c2c(c(C)c1O)CC[C@@](C)(CCC[C@H](C)CCC[C@H](C)CCCC(C)C)O2 [AT, alpha-tocopherol]
TBARS content ([1]; 0 hours at 2.2C): 0.3067 mg Malonaldehyde/kg sample
TBARS content ([1]; 4 hours at 2.2C): 0.4354^b mg Malonaldehyde/kg sample
TBARS content ([1]; 26 hours at 2.2C): 0.3366^b mg Malonaldehyde/kg sample
TBARS content ([1]; 48 hours at 2.2C): 0.4433^b mg Malonaldehyde/kg sample
Chop purge, % ([2]; 300 ppm in diet): 1.97%
Cooking Loss, % ([2]; 300 ppm in diet): 20.11%
Hunter L ([2]; 300 ppm in diet): 46.68
Hunter L* ([2]; 300 ppm in diet): 53.86
Hunter a ([2]; 300 ppm in diet): 5.71
Hunter a* ([2]; 300 ppm in diet): 6.76
Hunter b ([2]; 300 ppm in diet): 8.60
Hunter b* ([2]; 300 ppm in diet): 15.77
Loin pH ([2]; 300 ppm in diet): 5.66
Loin purge, % ([2]; 300 ppm in diet): 0.99%
Instron force, kg ([2]; 300 ppm in diet): 4.98^b kg
TBARS content ([3]; 0 hours at 2.2C): 0.4568^b mg Malonaldehyde/kg sample
TBARS content ([3]; 4 hours at 2.2C): 0.8954^d mg Malonaldehyde/kg sample
TBARS content ([3]; 26 hours at 2.2C): 0.8968^d mg Malonaldehyde/kg sample
TBARS content ([3]; 48 hours at 2.2C): 1.1669^d mg Malonaldehyde/kg sample
PH, hour 22 ([4]; 300 ppm in diet): 5.86
Color Score ([5]; 300 ppm in diet): 3.2
Fat Firmness ([5]; 300 ppm in diet): 2.3
Hunter L* ([5]; 300 ppm in diet): 48.89
Marbling ([5]; 300 ppm in diet): 2.1

Cc1c(O)cc2c(c1C)O[C@](C)(CCC[C@H](C)CCC[C@H](C)CCCC(C)C)CC2 [GT, gamma-tocopherol]
TBARS content ([1]; 0 hours at 2.2C): 0.3809 mg Malonaldehyde/kg sample
TBARS content ([1]; 4 hours at 2.2C): 0.3443^b mg Malonaldehyde/kg sample
TBARS content ([1]; 26 hours at 2.2C): 0.4559^b mg Malonaldehyde/kg sample
TBARS content ([1]; 48 hours at 2.2C): 0.6120^b mg Malonaldehyde/kg sample
Chop purge, % ([2]; 450 ppm in diet): 2.40%
Cooking Loss, % ([2]; 450 ppm in diet): 20.27%
Hunter L ([2]; 450 ppm in diet): 45.47
Hunter L* ([2]; 450 ppm in diet): 52.53
Hunter a ([2]; 450 ppm in diet): 6.00
Hunter a* ([2]; 450 ppm in diet): 7.14
Hunter b ([2]; 450 ppm in diet): 8.41
Hunter b* ([2]; 450 ppm in diet): 15.61
Loin pH ([2]; 450 ppm in diet): 5.67
Loin purge, % ([2]; 450 ppm in diet): 1.16%
Instron force, kg ([2]; 450 ppm in diet): 5.53^a kg
TBARS content ([3]; 0 hours at 2.2C): 0.4839^b mg Malonaldehyde/kg sample
TBARS content ([3]; 4 hours at 2.2C): 0.6715^d mg Malonaldehyde/kg sample
TBARS content ([3]; 26 hours at 2.2C): 1.2515^d mg Malonaldehyde/kg sample
TBARS content ([3]; 48 hours at 2.2C): 1.6312^d mg Malonaldehyde/kg sample
PH, hour 22 ([4]; 450 ppm in diet): 5.76
Color Score ([5]; 450 ppm in diet): 3.1
Fat Firmness ([5]; 450 ppm in diet): 2.0
Hunter L* ([5]; 450 ppm in diet): 48.81
Marbling ([5]; 450 ppm in diet): 1.9
